Results from PMC11901902, “Design, Synthesis, and Cytotoxicity Evaluation of Novel Indolin-2-One Based Molecules on Hepatocellular Carcinoma HepG2 Cells as Protein Kinase Inhibitors” (Molecules, 2025).

Columns and labels:
[1] = system: HepG-2 cells; assay: MTT cytotoxicity assay on HepG-2 cells; type: cell-based, human; settings: Homo sapiens, HepG2; for viability at 1.25 µM: HepG-2, 1.25 µM; for viability at 1.25 µM / viability at 2.5 µM / viability at 5 µM / viability at 10 µM / viability at 20 µM / viability at 40 µM / viability at 80 µM / viability at 160 µM: Table S1; for viability at 2.5 µM: HepG-2, 2.5 µM; for viability at 5 µM: HepG-2, 5 µM; for viability at 10 µM: HepG-2, 10 µM; for viability at 20 µM: HepG-2, 20 µM; for viability at 40 µM: HepG-2, 40 µM; for viability at 80 µM: HepG-2, 80 µM; for viability at 160 µM: HepG-2, 160 µM; for IC50: MTT, 24 h treatment, mean of three experiments ± SEM
Experimental: (§1) Cytotoxic activity of the synthesized compounds was evaluated against HepG-2 and MCF-7 cancer cell lines using the MTT assay. The tested cell lines were obtained from the American Type Culture Collection (ATCC, […], USA) through the Tissue Culture Unit, The Egyptian Organization for Biological Products and Vaccines (Vacsera, Giza, Egypt). Indirubin, chemicals, and solvents were purchased from Sigma-Aldrich (St. Louis, MO, USA). The cells were grown on RPMI-1640 medium supplemented with 10% inactivated fetal calf serum and 50 µg/mL gentamycin. The cells were maintained at 37 °C in a humidified atmosphere with 5% CO2 and were sub-cultured two to three times per week. For antitumor assays, the tumor cell lines were suspended in the medium at concentration 5 × 10^4 cell/well in Corning® 96-well tissue culture plates (Corning, Corning, NY, USA), then incubated for 24 h. The tested molecules were then added to 96-well plates (six replicates) to achieve six concentrations for each compound. Six vehicle controls with media or 0.5% DMSO were run for each 96-well plate as a control. After incubating for 24 h, the numbers of viable cells were determined by the MTT test. Briefly, the media was removed from the 96 well plate and replaced with 100 µL of fresh culture RPMI 1640 medium without phenol red then 10 µL of the 12 mM MTT stock solution (5 mg of MTT in 1 mL of PBS) to each well including the untreated controls. The 96-well plates were then incubated at 37 °C and 5% CO2 for 4 h. An 85 µL aliquot of the media was removed from the wells, and 50 µL of DMSO was added to each well, mixed thoroughly with the pipette, and incubated at 37 °C for 10 min. Then, the optical density was measured at 590 nm with the microplate reader (SunRise, TECAN, Inc., Morrisville, NC, USA) to determine the number of viable cells, and the percentage of viability was calculated as […], where ODt is the mean optical density of wells treated with the tested sample and ODc is the mean optical density of untreated cells. The relation between surviving cells and drug concentration was plotted to obtain the survival curve of each tumor cell line after treatment with the specified compound. […] Each concentration was repeated four times.

[2] = system: MCF-7 cells; assay: MTT cytotoxicity assay on MCF-7 cells; type: cell-based; settings: Homo sapiens, MCF7; for viability at 1.25 µM: MCF-7, 1.25 µM; for viability at 1.25 µM / viability at 2.5 µM / viability at 5 µM / viability at 10 µM / viability at 20 µM / viability at 40 µM / viability at 80 µM / viability at 160 µM: Table S2; for viability at 2.5 µM: MCF-7, 2.5 µM; for viability at 5 µM: MCF-7, 5 µM; for viability at 10 µM: MCF-7, 10 µM; for viability at 20 µM: MCF-7, 20 µM; for viability at 40 µM: MCF-7, 40 µM; for viability at 80 µM: MCF-7, 80 µM; for viability at 160 µM: MCF-7, 160 µM; for IC50: MTT, 24 h treatment, mean of three experiments ± SEM, read-out: IC50 (µM) MCF-7
Experimental: as §1

[3] = target: T1, EGFR (Homo sapiens, UniProt P00533); assay: Kinase-Glo Plus luminescence kinase inhibition assay, EGFR; type: biochemical; settings: 10 µM ATP, 30 °C, 40 min; mean ± SEM
T1 construct: purchased BPS Bioscience 40721
T1 sequence (P00533 25-1210): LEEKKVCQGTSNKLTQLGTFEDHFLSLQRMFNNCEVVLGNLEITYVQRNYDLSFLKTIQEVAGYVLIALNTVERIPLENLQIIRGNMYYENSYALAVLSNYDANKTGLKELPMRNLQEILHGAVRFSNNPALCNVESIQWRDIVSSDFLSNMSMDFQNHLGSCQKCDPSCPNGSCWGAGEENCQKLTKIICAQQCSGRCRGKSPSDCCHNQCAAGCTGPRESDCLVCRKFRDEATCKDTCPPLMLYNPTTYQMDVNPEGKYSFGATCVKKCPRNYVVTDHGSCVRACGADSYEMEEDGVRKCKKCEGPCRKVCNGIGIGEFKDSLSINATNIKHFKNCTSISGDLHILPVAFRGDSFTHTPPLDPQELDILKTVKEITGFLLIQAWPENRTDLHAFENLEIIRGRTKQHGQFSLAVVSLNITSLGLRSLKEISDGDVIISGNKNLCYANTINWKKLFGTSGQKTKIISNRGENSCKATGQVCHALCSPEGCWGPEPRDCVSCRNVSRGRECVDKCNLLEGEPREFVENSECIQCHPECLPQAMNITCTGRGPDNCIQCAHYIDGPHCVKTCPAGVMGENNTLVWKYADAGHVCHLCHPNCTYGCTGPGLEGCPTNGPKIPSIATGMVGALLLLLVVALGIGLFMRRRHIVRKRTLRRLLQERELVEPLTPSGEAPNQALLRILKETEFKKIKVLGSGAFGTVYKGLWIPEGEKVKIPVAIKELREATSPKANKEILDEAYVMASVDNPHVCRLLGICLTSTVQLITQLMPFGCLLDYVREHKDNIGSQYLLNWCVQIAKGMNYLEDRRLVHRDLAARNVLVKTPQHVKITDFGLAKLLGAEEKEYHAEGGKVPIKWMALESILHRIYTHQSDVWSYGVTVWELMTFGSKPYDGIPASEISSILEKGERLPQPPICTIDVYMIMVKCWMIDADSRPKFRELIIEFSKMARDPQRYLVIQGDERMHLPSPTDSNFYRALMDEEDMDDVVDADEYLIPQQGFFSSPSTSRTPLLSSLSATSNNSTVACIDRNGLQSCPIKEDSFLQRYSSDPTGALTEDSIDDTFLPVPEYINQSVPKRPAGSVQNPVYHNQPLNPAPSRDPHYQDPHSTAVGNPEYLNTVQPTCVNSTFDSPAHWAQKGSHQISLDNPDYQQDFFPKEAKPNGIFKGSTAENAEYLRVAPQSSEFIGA
Experimental: (§2) The enzyme inhibition assay for the tested molecules was performed at BPS Bioscience Corporation, San Diego, CA, USA. The following materials served as the enzyme sources, Poly (Glu, Tyr) sodium salt (4:1, Glu:Tyr) (Sigma#P7244) served as the standardized substrate, and the Kinase-Glo Plus Luminescence kinase assay kit (Promega # V3772) was used. […] Glo Plus luminescence kinase assay kits. The assays were performed using Kinase-Glo Plus luminescence (Promega Corporation, Madison, WI, USA).
(§3) The tested molecules 9, 20, and indurbin were diluted to 100 µL in DMSO (10%), and 5 µL of the solution was added to a 50-µL enzyme reaction until the final concentration of DMSO was 1% in all of reactions. The enzymatic reactions were conducted at 30 °C for 40 min. The reaction mixture contained enzyme substrate and respective kinases. After the enzymatic reaction, 50 µL of enzyme-Glo Plus luminescence […] assay solution (Promega) was added to each reaction, and the plate was incubated for 5 min at room temperature. The luminescence signal was measured using a BioTek Synergy 2 microplate reader. The luminescence data were analyzed using the computer software GraphPad Prism. The difference between luminescence intensities in the absence of enzyme (Lut) and in the presence of enzyme (Luc) was defined as 100% activity (Lut − Luc). […] The IC50 value was determined using GraphPad Prism software. […]
(§4) Glo Plus luminescence kinase assay kits were used in these assays. […] The assay measures kinase activity by quantitating the amount of ATP remaining in the solution following kinase reaction. […] After the enzymatic reaction, 50 µL of Kinase-Glo Plus Luminescence kinase assay solution (Promega) was added to each reaction, and the plate was incubated for 5 min at room temperature. The luminescence signal was measured using a BioTek Synergy 2 microplate reader. […] The luminescence data were analyzed using the Graphpad Prism software.

[4] = target: T2, CDK-2 (Homo sapiens, UniProt P24941); assay: Kinase-Glo Plus luminescence kinase inhibition assay, CDK-2; type: biochemical; settings: 10 µM ATP, 30 °C, 40 min; mean ± SEM
T2 construct: purchased BPS Bioscience 41101
Experimental: as §2
The tested molecules 9, 20, and indurbin were diluted to 100 µL in DMSO (10%), and 5 µL of the solution was added to a 50-µL enzyme reaction until the final concentration of DMSO was 1% in all of reactions. The enzymatic reactions were conducted at 30 °C for 40 min. The reaction mixture contained enzyme substrate and respective kinases. After the enzymatic reaction, 50 µL of enzyme-Glo Plus luminescence […] assay solution (Promega) was added to each reaction, and the plate was incubated for 5 min at room temperature. The luminescence signal was measured using a BioTek Synergy 2 microplate reader. The luminescence data were analyzed using the computer software GraphPad Prism. The difference between luminescence intensities in the absence of enzyme (Lut) and in the presence of enzyme (Luc) was defined as 100% activity (Lut − Luc). The values of enzyme activity percentages versus five concentrations of the small molecule were then plotted using a non-linear regression analysis of the sigmoidal dose–response curve. The IC50 value was determined using GraphPad Prism software. All experiments were repeated three times (Table S3).
Glo Plus luminescence kinase assay kits were used in these assays. The assay was done at Bioscience Laboratory BPS, California, USA. The assay measures kinase activity by quantitating the amount of ATP remaining in the solution following kinase reaction. The luminescent signal from the assay was correlated with the amount of ATP present and inversely correlated with kinase activity. […] All of the enzymatic reactions were conducted at 30 °C for 40 min. The reaction mixture contained 40 mM Tris, pH 7.4, 10 mM MgCl2, 0.1 mg/mL BSA, 1 mM DTT, 10 µM ATP, Kinase substrate, and VEGFR-2, EFGR, CDK-2 and CDK-4 enzymes. After the enzymatic reaction, 50 µL of Kinase-Glo Plus Luminescence kinase assay solution (Promega) was added to each reaction, and the plate was incubated for 5 min at room temperature. The luminescence signal was measured using a BioTek Synergy 2 microplate reader. Kinase activity assays were performed in triplicate for each concentration. The luminescence data were analyzed using the Graphpad Prism software.

[5] = target: T3, CDK-4 (Homo sapiens, UniProt P11802); assay: Kinase-Glo Plus luminescence kinase inhibition assay, CDK-4; type: biochemical; settings: 10 µM ATP, 30 °C, 40 min; mean ± SEM
T3 construct: purchased BPS Bioscience 79674
T3 sequence (P11802 whole entry): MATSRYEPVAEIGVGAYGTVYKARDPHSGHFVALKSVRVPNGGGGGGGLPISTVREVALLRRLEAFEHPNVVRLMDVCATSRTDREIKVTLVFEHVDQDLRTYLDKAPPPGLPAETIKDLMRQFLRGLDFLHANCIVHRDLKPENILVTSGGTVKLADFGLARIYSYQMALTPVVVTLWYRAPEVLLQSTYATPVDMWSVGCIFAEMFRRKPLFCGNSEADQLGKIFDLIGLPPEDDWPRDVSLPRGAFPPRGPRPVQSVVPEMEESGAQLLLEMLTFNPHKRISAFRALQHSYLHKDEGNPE
T3 sequence (P30281 whole entry partner): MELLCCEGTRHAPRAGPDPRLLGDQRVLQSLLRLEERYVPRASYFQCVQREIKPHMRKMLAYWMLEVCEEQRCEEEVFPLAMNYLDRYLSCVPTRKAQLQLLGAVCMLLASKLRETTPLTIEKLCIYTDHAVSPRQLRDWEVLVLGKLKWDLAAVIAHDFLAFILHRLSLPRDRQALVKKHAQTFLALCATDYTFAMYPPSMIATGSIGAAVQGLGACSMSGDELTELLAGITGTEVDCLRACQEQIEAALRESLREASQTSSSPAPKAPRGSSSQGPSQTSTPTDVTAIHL
Experimental: as §2, §3, §4

[6] = target: T4, VEGFR-2 (Homo sapiens, UniProt P35968); assay: Kinase-Glo Plus luminescence kinase inhibition assay, VEGFR-2; type: biochemical; settings: 10 µM ATP, 30 °C, 40 min; mean ± SEM
T4 construct: purchased BPS Bioscience 40301
T4 sequence (P35968 20-1356): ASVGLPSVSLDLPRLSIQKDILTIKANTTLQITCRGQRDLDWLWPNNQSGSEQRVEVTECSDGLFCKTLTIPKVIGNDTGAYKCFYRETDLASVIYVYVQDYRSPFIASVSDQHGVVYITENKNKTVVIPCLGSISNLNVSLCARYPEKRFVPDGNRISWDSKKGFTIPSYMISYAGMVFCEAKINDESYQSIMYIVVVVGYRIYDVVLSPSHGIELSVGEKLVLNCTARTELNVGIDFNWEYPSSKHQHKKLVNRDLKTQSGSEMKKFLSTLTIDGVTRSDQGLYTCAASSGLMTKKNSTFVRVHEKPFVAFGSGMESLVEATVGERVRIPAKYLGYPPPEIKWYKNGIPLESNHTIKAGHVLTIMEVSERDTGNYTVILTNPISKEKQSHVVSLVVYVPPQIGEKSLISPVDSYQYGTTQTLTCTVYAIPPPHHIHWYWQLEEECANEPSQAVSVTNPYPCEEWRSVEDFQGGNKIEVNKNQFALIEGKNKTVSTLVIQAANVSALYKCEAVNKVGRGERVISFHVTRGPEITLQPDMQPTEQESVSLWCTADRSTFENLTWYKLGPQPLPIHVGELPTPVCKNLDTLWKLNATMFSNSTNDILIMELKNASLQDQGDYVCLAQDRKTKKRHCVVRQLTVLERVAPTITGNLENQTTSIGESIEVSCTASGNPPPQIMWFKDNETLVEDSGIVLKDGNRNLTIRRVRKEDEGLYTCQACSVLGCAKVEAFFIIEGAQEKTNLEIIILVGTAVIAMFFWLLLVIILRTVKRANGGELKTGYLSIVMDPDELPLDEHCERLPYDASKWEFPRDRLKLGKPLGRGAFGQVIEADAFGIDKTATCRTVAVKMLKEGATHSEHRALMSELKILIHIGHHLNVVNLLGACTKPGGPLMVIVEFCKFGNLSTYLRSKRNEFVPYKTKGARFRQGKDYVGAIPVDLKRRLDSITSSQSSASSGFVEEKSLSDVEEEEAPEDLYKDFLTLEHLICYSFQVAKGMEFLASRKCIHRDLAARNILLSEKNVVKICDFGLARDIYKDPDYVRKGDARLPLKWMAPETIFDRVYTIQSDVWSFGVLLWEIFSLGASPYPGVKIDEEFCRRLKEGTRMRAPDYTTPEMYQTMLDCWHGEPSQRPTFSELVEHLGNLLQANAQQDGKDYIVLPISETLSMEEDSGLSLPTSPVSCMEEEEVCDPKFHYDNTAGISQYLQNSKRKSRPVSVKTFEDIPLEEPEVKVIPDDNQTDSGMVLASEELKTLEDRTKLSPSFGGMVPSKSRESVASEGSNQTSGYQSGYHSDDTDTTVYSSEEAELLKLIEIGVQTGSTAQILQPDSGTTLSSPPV
Experimental: as §2, §3, §4

[7] = system: HepG2 cells; set-up: method as in PMID 34208562; settings: relative to sunitinib; cited from earlier work

For `Cc1ccc2c(c1)C(=Nc1ccc(-c3nc4ccccc4c(=O)[nH]3)cc1)C(=O)N2` [Compound 23, 2-[4-(5-Methyl-2-oxo-1,2-dihydro-indol-3-ylideneamino)-phenyl]-3H-quinazolin-4-one], the viability at 1.25 µM [1] was 81.5 ± 7.5%, the viability at 2.5 µM [1] was 75.3 ± 6.8% and the viability at 5 µM [1] was 64.8 ± 6%. It also gave a viability at 10 µM [1] of 50.2 ± 4.4%, a viability at 20 µM [1] of 39.1 ± 3.6% and a viability at 40 µM [1] of 28.7 ± 2.6%. The viability at 80 µM [1] was 9.5 ± 0.6%, the viability at 160 µM [1] was 4.5 ± 0.3% and the IC50 [1] was 38.4 ± 2.71 µM. It also gave a viability at 1.25 µM [2] of 101 ± 7.9%, a viability at 2.5 µM [2] of 91.5 ± 6.5% and a viability at 5 µM [2] of 78.8 ± 6.4%. It also gave a viability at 10 µM [2] of 65.8 ± 5.6%, a viability at 20 µM [2] of 40.9 ± 4.6% and a viability at 40 µM [2] of 26.9 ± 3%. It also gave a viability at 80 µM [2] of 12 ± 1.3%, a viability at 160 µM [2] of 12 ± 1.6% and an IC50 [2] of 15.3 ± 0.23 µM.
For `COc1ccc2c(c1)C(=Nc1ccc(-c3nc4ccccc4c(=O)[nH]3)cc1)C(=O)N2` [Compound 24, 2-[4-(5-Methoxy-2-oxo-1,2-dihydro-indol-3-ylideneamino)-phenyl]-3H-quinazolin-4-one], the viability at 1.25 µM [1] was 99.4 ± 8.2%, the viability at 2.5 µM [1] was 95.5 ± 7.3% and the viability at 5 µM [1] was 88.5 ± 7%. It also gave a viability at 10 µM [1] of 79.6 ± 6.9%, a viability at 20 µM [1] of 62.1 ± 5.7% and a viability at 40 µM [1] of 49.5 ± 3.6%. It also gave a viability at 80 µM [1] of 23.9 ± 2.4%, a viability at 160 µM [1] of 10.4 ± 1.1% and an IC50 [1] of 32.7 ± 2.93 µM. The viability at 1.25 µM [2] was 104 ± 8.4%, the viability at 2.5 µM [2] was 97.9 ± 7.7% and the viability at 5 µM [2] was 90.8 ± 7%. The viability at 10 µM [2] was 80 ± 6.9%, the viability at 20 µM [2] was 61.3 ± 4.7% and the viability at 40 µM [2] was 29.6 ± 2.6%. For the same compound, the viability at 80 µM [2] was 11.1 ± 1.4%, the viability at 160 µM [2] was 5.92 ± 0.5% and the IC50 [2] was 18.5 ± 0.96 µM.
Compound `O=C1Nc2ccccc2/C1=C1/Nc2ccccc2C1=O` [Ind, Indirubin, reference compound] has an IC50 [3] of 175 ± 18.3 nM, an IC50 [4] of 45.6 ± 2.24 nM and an IC50 [5] of 23.6 ± 2.15 nM. The IC50 [1] was 6.92 ± 0.65 µM, the IC50 [2] was 6.12 ± 0.35 µM and the IC50 [6] was 126 ± 20 nM.
For `Cc1cc(C)c(/C=C2\C(=O)Nc3ccccc32)[nH]1` [Semaxanib], the “fold more cytotoxic activity than sunitinib” value [7] is listed as 3 fold.
